Reference: US20230174584A1, “Antibiotic Compounds” (priority 2019, published 2023)
Converted amounts (≈) assume the structure as drawn. Like-named read-outs stand apart in the source and are kept apart here.

What was measured:
[1] = tested on: E. faecalis E1246; assay: MIC assay; assay type: cell-based, Enterococcus faecalis
Procedure: (§1) The antibacterial activity of the compounds was tested against a panel of bacteria, including Gram-positive bacteria (S. aureus ATCC29213, S. aureus USA300, S. aureus LIM-2, NR-45881, S. aureus HIP13419, NR-46413, E. faecium E155, E. faecium E7314, E. faecium E980, E. faecalis E1246, E. faecalis E7406 and S. pneumonia 153). The antibacterial activity of the compounds was further tested against S. aureus NY-155, NR-46236, S. aureus HIP12864, NR-46074, S. aureus 880 (BR-VRSA), NR-49120, E. faecalis E1246, E. faecalis E7604, as well as some Gram-negative bacteria (Escherichia coli and Klebsiella pneumoniae). Minimum inhibitory concentrations (MICs) in μg/mL were performed according to the CLSI guidelines. From glycerol stocks, bacterial strains were cultured on blood agar plates and incubated at 37° C. for 18 h. A single colony was transferred to tryptic soy broth (TSB) with 0.002% polysorbate 80 (p80). For the Enterococcus, VISA and VRSA strains, the cultures were grown at 37° C. until the optical density of the suspension reached a level equivalent to the 0.5 McFarland standard. The bacterial suspensions were diluted in TSB with 0.002% p80 to reach a bacterial cell density of 10^6 CFU/mL. In case of the other (vancomycin-sensitive) S. aureus strains, the direct colony suspension method was used. For these strains, after transfer of the colonies to TSB with 0.002% p80, they were immediately diluted to 10^6 CFU/mL, instead of incubated prior to this dilution. In the case of S. pneumonia, direct colony suspension was used by immediately suspending multiple colonies from fresh blood agar plates in TSB+0.002% p80 to an OD600 of 0.5 and subsequent dilution to 10^6 CFU mL^−1 in TSB+0.002% p80+5% lysed horse blood. Antibiotic dilutions for this strains were also made in TSB+0.002% p80+5% lysed horse blood. Both agar and microplates containing S. pneumonia were incubated at 37° C. with 5% CO2 for 24 h with constant shaking (600 rpm). […] The cultures were grown to exponential phase (OD600=0.5) at 37° C. […] In polypropylene 96-well microtiter plates, test compounds were added in biological triplicates and serial diluted 2-fold by transfer and mixing from one well to the next to achieve a final volume of 50 μL per well. An equal volume of bacterial suspension (10^6 CFU mL^−1) was added to the wells. The plates were sealed with breathable membranes and incubated at 37° C. for 24 h with constant shaking (600 rpm). In polypropylene microtiter plates, 100 μL of the test compounds was added to the first row in biological triplicates, and 50 μL of media was added to the other wells. The compounds were subjected to serial dilution by transfer and mixing of 50 μL from one well to the next. Subsequently, 50 μL of bacterial suspension (10^6 CFU/mL) was added to the wells. The plates were sealed with breathable membranes and incubated at 37° C. for 24 h with constant shaking (600 rpm). Positive growth control consisted of wells with bacterial suspension and without antibiotic. Negative growth control consisted of solely media without bacterial suspension or antibiotic. The MICs were determined from the median of a minimum of triplicates.

[2] = tested on: E. faecium E155; assay: microbe, parasite or virus in culture; assay type: cell-based, Enterococcus faecium
Procedure: as §1

[3] = tested on: E. faecium E7314; assay: microbe, parasite or virus in culture; assay type: cell-based, Enterococcus faecium
Procedure: as §1

[4] = tested on: S. aureus HIP13419, NR-46413; assay: microbe, parasite or virus in culture; assay type: cell-based, Staphylococcus aureus
Procedure: as §1

[5] = tested on: S. aureus USA300; assay: microbe, parasite or virus in culture; assay type: cell-based, Staphylococcus aureus
Procedure: as §1

[6] = tested on: S. pneumoniae 153; assay: MIC assay; assay type: cell-based; conditions: S. pneumoniae 153, TSB+0.002% p80+5% lysed horse blood
Procedure: as §1

[7] = tested on: E. faecium E980; assay: MIC assay; assay type: cell-based, Enterococcus faecium
Procedure: as §1

[8] = tested on: S. aureus NY-155, NR-46236; assay: MIC assay; assay type: cell-based, Staphylococcus aureus; conditions: S. aureus NY-155, NR-46236 MRSA
Procedure: as §1

[9] = tested on: S. aureus 880 (BR-VRSA), NR-49120; assay: MIC assay; assay type: cell-based, Staphylococcus aureus; conditions: S. aureus 880, NR-49120 VRSA
Procedure: as §1

[10] = tested on: S. aureus LIM-2, NR-25881; assay: MIC assay; assay type: cell-based, Staphylococcus aureus; conditions: S. aureus LIM-2, NR-25881 VISA
Procedure: as §1

[11] = tested on: S. aureus ATCC29213; assay: MIC assay; assay type: cell-based, Staphylococcus aureus
Procedure: as §1

[12] = tested on: S. aureus HIP12864, NR-46074; assay: MIC assay; assay type: cell-based, Staphylococcus aureus; conditions: S. aureus HIP12864, NR-46074 VISA
Procedure: as §1

[13] = tested on: MRSA USA300; assay: MIC assay in the presence of sheep serum; assay type: cell-based, Staphylococcus aureus; conditions: MRSA USA300, TSB + 0.002% p80 + 50% sheep serum
Procedure: as §1
The activity of the compounds was further assessed against MRSA USA300 strain in the presence of sheep) serum in another MIC assay. The cultures that grew in the presence of serum used TSB+0.002% P80+50% sheep serum as growth media, as opposed to normal MICs done in only TSB+0.002% P80.

[14] = tested on: E. faecalis E7604; assay: microbe, parasite or virus in culture; assay type: cell-based, Enterococcus faecalis
Procedure: as §1

[15] = tested on: E. faecalis E7406; assay: microbe, parasite or virus in culture; assay type: cell-based, Enterococcus faecalis
Procedure: as §1

[16] = E. faecalis E1246 VRE (VanA), Table 7
[17] = E. faecalis E1246 VRE (vanA), Table 9
[18] = S. aureus HIP13419, NR-46413 VRSA
[19] = Staphylococcus aureus, read-out: MIC

Molecule | MIC [1, 16] | MIC [1, 17] | MIC ([2]; E. faecium E155 VRE (VanA)) | MIC ([3]; E. faecium E7314 VRE (VanB)) | MIC [4, 18] | MIC ([5]; MRSA USA300, TSB + 0.002% p80) | MIC ([5]; S. aureus USA300 MRSA) | MIC [6] | MIC ([7]; E. faecium E980 VSE) | MIC [8] | MIC [9] | MIC [10] | MIC ([11]; S. aureus ATCC29213 MSSA) | MIC [12] | MIC [13] | MIC ([14]; E. faecalis E7604 VRE (vanB)) | MIC ([15]; E. faecalis E7406 VRE (VanB)) | other results
CCCCCCCCCCN(CCCCCCCCCC)C(N)=Nc1ccc(CN[C@@]2(C)C[C@H](O[C@H]3[C@H](Oc4c5cc6cc4Oc4ccc(cc4Cl)[C@@H](O)[C@@H](NC(=O)[C@@H](CC(C)C)NC)C(=O)N[C@@H](CC(N)=O)C(=O)N[C@H]6C(=O)N[C@H]4C(=O)N[C@H](C(=O)N[C@H](C(=O)O)c6cc(O)cc(O)c6-c6cc4ccc6O)[C@H](O)c4ccc(c(Cl)c4)O5)O[C@H](CO)[C@@H](O)[C@@H]3O)O[C@@H](C)[C@H]2O)cc1 [Compound 13] | 32 µg/mL (≈ 17 µM) | 32 µg/mL (≈ 17 µM) | 8 µg/mL (≈ 4.26 µM) | 4 µg/mL (≈ 2.13 µM) | 8 µg/mL (≈ 4.26 µM) | 16 µg/mL | 16 µg/mL (≈ 8.52 µM) | 2 µg/mL (≈ 1.07 µM) | 4 µg/mL (≈ 2.13 µM) | 16 µg/mL (≈ 8.52 µM) | 8 µg/mL (≈ 4.26 µM) | 32 µg/mL (≈ 17 µM) | 16 µg/mL (≈ 8.52 µM) | 16 µg/mL (≈ 8.52 µM) | 64 µg/mL | 4 µg/mL (≈ 2.13 µM) | 4 µg/mL (≈ 2.13 µM) | 
CCCCN(CCCC)C(N)=Nc1ccc(CN[C@@]2(C)C[C@H](O[C@H]3[C@H](Oc4c5cc6cc4Oc4ccc(cc4Cl)[C@@H](O)[C@@H](NC(=O)[C@@H](CC(C)C)NC)C(=O)N[C@@H](CC(N)=O)C(=O)N[C@H]6C(=O)N[C@H]4C(=O)N[C@H](C(=O)N[C@H](C(=O)O)c6cc(O)cc(O)c6-c6cc4ccc6O)[C@H](O)c4ccc(c(Cl)c4)O5)O[C@H](CO)[C@@H](O)[C@@H]3O)O[C@@H](C)[C@H]2O)cc1 [Compound 11] | >128 µg/mL | >128 µg/mL | 32 µg/mL (≈ 18.7 µM) | 0.5 µg/mL (≈ 0.293 µM) | 16 µg/mL (≈ 9.36 µM) | 0.125 µg/mL | 0.125 µg/mL (≈ 0.0732 µM) | 0.063 µg/mL (≈ 0.0369 µM) | 0.0625 µg/mL (≈ 0.0366 µM) | 0.063 µg/mL (≈ 0.0369 µM) | 64 µg/mL (≈ 37.5 µM) | 0.5 µg/mL (≈ 0.293 µM) | 0.125 µg/mL (≈ 0.0732 µM) | 1 µg/mL (≈ 0.585 µM) | 0.063 µg/mL | 8 µg/mL (≈ 4.68 µM) | 8 µg/mL (≈ 4.68 µM) | 
CN[C@H]1C(=O)N[C@@H]2Cc3ccc(cc3)Oc3cc4cc(c3O[C@@H]3O[C@H](C(=O)O)[C@@H](O)[C@H](O)[C@H]3NC(=O)CCCCCCCCC(C)C)Oc3ccc(cc3Cl)[C@@H](O)[C@@H]3NC(=O)[C@H](NC(=O)[C@@H]4NC(=O)[C@@H](NC2=O)c2cc(cc(O)c2Cl)Oc2cc1ccc2O)c1ccc(O)c(c1)-c1c(O[C@H]2O[C@H](CO)[C@@H](O)[C@H](O)[C@@H]2O)cc(O)cc1[C@@H](C(=O)NCCCN(C)C)NC3=O [Dalbavancin, reference compound] |  | >128 µg/mL |  |  |  |  |  |  |  |  |  |  |  |  |  |  |  | MIC ([1]; Enterococcus faecalis, E. faecalis E1246 VRE (VanA), Table 7, read-out: MIC): > 128 µg/mL; MIC ([2]; Enterococcus faecium, VRE): 128 µg/mL (≈ 70.5 µM); MIC ([3]; Enterococcus faecium, VRE): 0.0156 µg/mL (≈ 0.0086 µM); MIC ([4]; Staphylococcus aureus, VRSA): 16 µg/mL (≈ 8.81 µM); MIC ([5]; Staphylococcus aureus, MRSA / USA300): 0.25 µg/mL (≈ 0.138 µM); MIC ([6]; Streptococcus pneumoniae, read-out: MIC): ≤ 0.008 µg/mL; MIC ([7]; Enterococcus faecium, E980): 0.0625 µg/mL (≈ 0.0344 µM); MIC [8, 19]: ≤ 0.008 µg/mL; MIC [9, 19]: 2 µg/mL (≈ 1.1 µM); MIC [10, 19]: 1 µg/mL (≈ 0.55 µM); MIC ([11]; Staphylococcus aureus, ATCC 29213 / MSSA): 0.25 µg/mL (≈ 0.138 µM); MIC [12, 19]: 0.5 µg/mL (≈ 0.275 µM); MIC ([13]; Staphylococcus aureus, 24 h, read-out: MIC): 2 µg/mL; MIC ([14]; Enterococcus faecalis, VRE): 0.031 µg/mL (≈ 0.0171 µM); MIC ([15]; Enterococcus faecalis, VRE): 0.0312 µg/mL (≈ 0.0172 µM)
CCCCCCCCCCCCCCNC(N)=Nc1ccc(CN[C@@]2(C)C[C@H](O[C@H]3[C@H](Oc4c5cc6cc4Oc4ccc(cc4Cl)[C@@H](O)[C@@H](NC(=O)[C@@H](CC(C)C)NC)C(=O)N[C@@H](CC(N)=O)C(=O)N[C@H]6C(=O)N[C@H]4C(=O)N[C@H](C(=O)N[C@H](C(=O)O)c6cc(O)cc(O)c6-c6cc4ccc6O)[C@H](O)c4ccc(c(Cl)c4)O5)O[C@H](CO)[C@@H](O)[C@@H]3O)O[C@@H](C)[C@H]2O)cc1 [Compound 10] | 2 µg/mL (≈ 1.12 µM) | 2 µg/mL (≈ 1.12 µM) | 0.5 µg/mL (≈ 0.279 µM) | 0.5 µg/mL (≈ 0.279 µM) | 0.5 µg/mL (≈ 0.279 µM) | 4 µg/mL | 4 µg/mL (≈ 2.23 µM) | 0.031 µg/mL (≈ 0.0173 µM) | 0.5 µg/mL (≈ 0.279 µM) | 8 µg/mL (≈ 4.46 µM) | 1 µg/mL (≈ 0.558 µM) | 4 µg/mL (≈ 2.23 µM) | 2 µg/mL (≈ 1.12 µM) | 2 µg/mL (≈ 1.12 µM) | 16 µg/mL | 1 µg/mL (≈ 0.558 µM) | 1 µg/mL (≈ 0.558 µM) | 
Teicoplanin [reference compound] | >128 µg/mL | >128 µg/mL |  | 0.25 µg/mL | 32 µg/mL | 0.5 µg/mL | 0.5 µg/mL | 0.031 µg/mL | 0.5 µg/mL | 0.5 µg/mL | 16 µg/mL | 16 µg/mL | 0.5 µg/mL | 4 µg/mL | 2 µg/mL | 0.125 µg/mL | 0.125 µg/mL | 
